Drawing on ChEMBL document CHEMBL1144828, “Isoxazolone based inhibitors of p38 MAP kinases” (J Med Chem, 2008), this text covers inhibition and IC50 for 31 molecules.

SMILES strings stand for the structures.

T1 sequence (Q16539 whole entry): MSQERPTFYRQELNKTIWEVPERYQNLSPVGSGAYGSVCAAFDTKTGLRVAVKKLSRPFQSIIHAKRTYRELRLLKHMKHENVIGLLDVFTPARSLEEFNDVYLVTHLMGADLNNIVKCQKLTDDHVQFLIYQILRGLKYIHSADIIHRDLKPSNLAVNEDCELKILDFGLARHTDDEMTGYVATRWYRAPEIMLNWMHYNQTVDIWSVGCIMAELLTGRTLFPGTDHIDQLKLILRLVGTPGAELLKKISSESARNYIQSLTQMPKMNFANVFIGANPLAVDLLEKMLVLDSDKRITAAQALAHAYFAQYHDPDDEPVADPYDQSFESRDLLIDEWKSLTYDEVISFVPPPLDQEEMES

One assay has as its target T1, Mitogen-activated protein kinase 14 (Homo sapiens, UniProt Q16539). Kind of assay: Inhibition of p38-alpha MAPK at 10 uM.
`CC(C)n1oc(=O)c(-c2ccc(F)cc2)c1-c1ccncc1` gave an inhibition of 42.2%. The same measure, in the same setting: the value for `Fc1ccc(-c2noc(OCC3CO3)c2-c2ccncc2)cc1` (stereo unspecified) was 23.7%. Take `CC(C)Oc1onc(-c2ccc(F)cc2)c1-c1ccncc1`: the inhibition was 11.9%. The same measure, in the same setting: the value for `CCOc1onc(-c2ccc(F)cc2)c1-c1ccncc1` was 13.6%; that for `O=C1c2ccccc2C(=O)N1CCn1oc(=O)c(-c2ccc(F)cc2)c1-c1ccncc1` was 41.9%. Still for that read-out and setting: the value for `Fc1ccc(-c2noc(OCC3CC3)c2-c2ccncc2)cc1` was 26.4%; that for `COCOc1onc(-c2ccc(F)cc2)c1-c1ccncc1` was 27.8%; that for `COc1onc(-c2ccc(F)cc2)c1-c1ccncc1` was 26.5%.

`O=c1on(CCN2CCCCC2)c(-c2ccncc2)c1-c1ccc(F)cc1`: the inhibition was 38.3%. The same measure, in the same setting: with `OCCOc1onc(-c2ccc(F)cc2)c1-c1ccncc1` the figure was 14.7%; with `OCCCOc1onc(-c2ccc(F)cc2)c1-c1ccncc1`, 9.8%; with `CC(c1ccccc1)n1oc(=O)c(-c2ccc(F)cc2)c1-c1ccncc1` (stereo unspecified), 27.5%. Same read-out and setting: the value for `COCCOc1onc(-c2ccc(F)cc2)c1-c1ccncc1` was 14.4%.

The target in another assay is T1, Mitogen-activated protein kinase 14. Kind of assay: Inhibition of p38-alpha MAPK.
`CCn1oc(=O)c(-c2ccc(F)cc2)c1-c1ccncc1` yielded an IC50 of 1630 nM. On the same count and under the same terms, the value for `O=C(Nc1ccc(F)cc1)n1oc(=O)c(-c2ccc(F)cc2)c1-c1ccncc1` was 320 nM; that for `COCCOCn1oc(=O)c(-c2ccc(F)cc2)c1-c1ccncc1` was 3830 nM; that for `O=c1on(CCCO)c(-c2ccncc2)c1-c1ccc(F)cc1` was 1150 nM. Still for that read-out and setting: with `CCNC(=O)n1oc(=O)c(-c2ccc(F)cc2)c1-c1ccncc1` the figure was 230 nM.

`Cc1ccc(S(=O)(=O)n2oc(=O)c(-c3ccc(F)cc3)c2-c2ccncc2)cc1` registered an IC50 of 480 nM. Still for that read-out and setting: the value for `CSCCn1oc(=O)c(-c2ccc(F)cc2)c1-c1ccncc1` was 3900 nM; that for `CSc1nc(-c2ccc(F)cc2)c(-c2ccncc2)n1CCCO` was 813 nM; that for `O=c1on(C(=S)Nc2ccc(F)cc2)c(-c2ccncc2)c1-c1ccc(F)cc1` was 350 nM. Same read-out and setting: the value for `CC(=O)n1oc(=O)c(-c2ccc(F)cc2)c1-c1ccncc1` was 120 nM; that for `O=c1on(CCO)c(-c2ccncc2)c1-c1ccc(F)cc1` was 2500 nM; that for `O=c1on(CC2CO2)c(-c2ccncc2)c1-c1ccc(F)cc1` (stereo unspecified) was 3830 nM.

As for `O=c1o[nH]c(-c2ccc(F)cc2)c1-c1ccncc1`, 1400 nM corresponded to half-maximal inhibition (IC50). On the same count and under the same terms, the value for `Oc1onc(-c2ccncc2)c1-c1ccc(F)cc1` was 390 nM; that for `CCOCCn1oc(=O)c(-c2ccc(F)cc2)c1-c1ccncc1` was 1320 nM; that for `O=c1on(CC2CC2)c(-c2ccncc2)c1-c1ccc(F)cc1` was 2130 nM. Still for that read-out and setting: with `CCOC(=O)CCNC(=O)n1oc(=O)c(-c2ccc(F)cc2)c1-c1ccncc1` the figure was 970 nM.

For the molecule `COCn1oc(=O)c(-c2ccc(F)cc2)c1-c1ccncc1`, 2130 nM corresponded to half-maximal inhibition (IC50).
